According to US4689346A, “Therapeutic 1-(acylamino)-naphthalene-4-sulphonic acid derivatives” (Laboratorio Fides, S.A., priority 1982, dated 1987):
Where two headings read alike, the source gives them in different places.

Key:
[1] = system: vascular permeability produced by histamine; assay: Capillary permeability, Lefebre's method (vascular permeability produced by histamine in rats); format: in vivo; settings: 0.100 g/kg, subcutaneous
Method: The effect on the capillary permeability is determined by means of Lefebre's method, which is based on measuring, at the time of appearance of a coloration, the vascular permeability produced by histamine in rats that have been injected with the product under investigation. Ethamsylate is used as a standard, and the results obtained are as follows: […]

capillary resistance = assay: Capillary resistance, modified technique based on that of Lavollay (time to first central petechiae under vacuum, scorbutic diet); format: in vivo; settings: 0.175 g/kg, oral, guinea-pigs, four weeks
Method: The effect on the capillary resistance is determined by means of a modified technique based on that of Lavollay. An increasingly powerful vacuum is applied to the skin, and the time that elapses before the first central petechiae appear is taken as a measure of the capillary resistance. Three batches of guinea-pigs are used for each product tested, one batch being a normal batch and the two other batches being subjected to a scorbutic diet, one of the latter batches having received the product under investigation from the start of the trial. An initial basal reading and other weekly readings are taken for four weeks. Ethamsylate is used as a standard.

[2] = system: mean bleeding (clotting) time measured in a rabbit ear; assay: Hemostatic activity: mean bleeding (clotting) time in a rabbit ear, technique of Roskam and Pauwen; format: in vivo; settings: i.v.
Method: The hemostatic activity is determined by means of a quantitative study of the mean bleeding (clotting) time measured in a rabbit ear by the technique described by Roskam and Pauwen.
Ethamsylate was used as a standard, and the results obtained were as follows: […]

fibrin plates = assay: Antifibrinolytic activity in vitro by means of fibrin plates, modified and standardized method of Astrup and Mullertz; format: biochemical; settings: AMCHA as standard (= 1)
Method: The antifibrinolytic activity is evaluated "in vitro" by means of fibrin plates according to the modified and standardized method of Astrup and Mullertz.
The antifibrinolytic activity of the test solution is calculated by interpolating the lysis response in a dose/response curve obtained with reference solutions (graduated dilutions of a standard enzyme). AMCHA was used as a standard antifibrinolytic compound.

[3] = Acute toxicity, LD50 in mice; format: in vivo; settings: mouse, in vivo
Method: (§1) The LD50 in mice is determined for the endovenous, intraperitoneal and oral routes.

mice = assay: Acute toxicity, LD50 in mice; format: in vivo; settings: for Acute toxicity, LD50, I.v. route: i.v. (endovenous)
Method: as §1

SMILES	Capillary permeability, % Effect [1] [%]	Capillary resistance, % Effect (capillary resistance) [%]	Hemostatic activity, % Effect ([2]; 10 mg/kg) [%]	Hemostatic activity, % Effect ([2]; 100 mg/kg) [%]	Antifibrinolytic activity, Weight capacity (fibrin plates)	LD50 ([3]; iv, i.v. (endovenous), read-out: Acute toxicity, LD50, I.v. route) [mg/kg]	Antifibrinolytic activity, Relative capacity (fibrin plates)	LD50 ([3]; ip, read-out: Acute toxicity, LD50, I.p. route) [mg/kg]	LD50 ([3]; po, read-out: Acute toxicity, LD50, Oral route) [mg/kg]	Acute toxicity, LD50, I.v. route (mice) [mg/kg]	Acute toxicity, LD50, I.p. route (mice) [mg/kg]	Acute toxicity, LD50, Oral route (mice) [mg/kg]	Hemostatic activity, % Effect ([2]; 25 mg/kg) [%]
NC[C@H]1CC[C@H](C(=O)O)CC1 [AMCHA, trans-4-(aminomethyl)-cyclohexanecarboxylic acid, reference compound]	-2	20.08	22.5	26.5	1	–	–	–	–	–	–	–	–
O=S(=O)(O)c1cc(O)ccc1O [Ethamsylate, reference compound]	26.33	14.18	22.11	–	0.28	800	0.47	–	–	–	–	–	–
CC(=O)Oc1cc(S(=O)(=O)O)c2ccccc2c1N(C(C)=O)C(C)=O [Example 1, potassium N,N,O-triacetyl-1-amino-2-naphthol-4-sulphonate]	19	23.6	18.2	23	0.91	–	2.06	3560	> 7000	653	–	–	–
CC(=O)Oc1cc(S(=O)(=O)O)c2ccccc2c1N(C(C)=O)C(C)=O [Example 2, morpholine N,N,O-triacetyl-1-amino-2-naphthol-4-sulphonate]	29	23.95	24.7	13	0.59	–	1.67	–	–	1530	4040	> 7000	–
CC(=O)Oc1cc(S(=O)(=O)O)c2ccccc2c1N(C(C)=O)C(C)=O [Example 4, sodium N,N,O-triacetyl-1-amino-2-naphthol-4-sulphonate]	–	17.9	29.7	29.8	1.21	–	2.61	–	–	3510	5260	> 7000	–
CC(=O)Nc1c(OC(C)=O)cc(S(=O)(=O)O)c2ccccc12 [Example 5, sodium N,O-diacetyl-1-amino-2-naphthol-4-sulphonate]	–	26	–	–	0.55	–	1.19	–	–	–	–	–	10.6
CC(=O)Oc1cc(S(=O)(=O)O)c2ccccc2c1N(C(C)=O)C(C)=O [Example 11, AMCHA N,N,O-triacetyl-1-amino-2-naphthol-4-sulphonate]	14	22.6	20	32	1.19	–	3.36	–	–	–	–	–	–
